According to patent US20160289186A1, “FLUOROMETHYL-SUBSTITUTED PYRROLE CA[…]” (Grunenthal GmbH, priority 2013, published 2016):

Molecular target: T1, Human CaV2.2 channels (Homo sapiens, UniProt Q00975)
T1 construct: expressed in transfected cells; host or cells: HEK293
Assay: Fluorescent (FLIPR) assay for CaV2.2 channels using potassium depolarization to induce channel opening
Assay type: cell-based
Details: 3 μM compound; 30 mM KCl assay buffer (inactivated channel state); HEK293 cells stably expressing human CaV2.2; read-out: Activity Category: %-Inhib (CaV2.2) @3 μM @30 mM KCl
Description: In the process, the Ca^2+ influx is quantified in the FLIPR assay with the aid of a Ca^2+-sensitive dye (type Fluo-4, Molecular Probes Europe BV, Leiden, the Netherlands) in a fluorescent imaging plate reader (FLIPR 3, Molecular Devices, Sunnyvale, USA), as described hereinafter.
Human CaV2.2 channels were stably expressed in HEK293 cells together with alpha2-delta and beta subunits of voltage gated calcium channels. In addition, an inwardly rectifying potassium channel (Kir2.3) was stably expressed in these cells to augment control of the cell membrane potential by the concentration of extracellular potassium ions. Raise of the extracellular potassium concentration leads to depolarization of the membrane potential and thus regulates the voltage dependent state of CaV2.2 channels. For preparation, cells were seeded in black poly-D-lysine coated 96-well plates (Becton Dickinson, Biocoat 4640) in 100 μL medium [500 mL DMEM/F-12 plus Glutamax (Invitrogen 31331-093) plus 5.5 mL MEM NEAA 100× (Invitrogen 11140-035) plus 50 mL FBS decomplemented (Invitrogen 10270-106) plus 200 μg/mL Geneticin (Invitrogen 10131-027) plus 50 μg/mL Hygromycin B (Invitrogen 10687-010) plus 2 μg/mL Blasticidin (anti-bl5b Invivo-Gen) plus 0.2 μg/mL Puromycin (A 11138-03)] at a cell density of 30.000 cells per well. Plates were incubated at 37° C. (5% CO2) for 20 to 23 h. On the day of experiment medium was discarded and cells were loaded with Fluo 4 by addition of 100 μL of basic assay buffer (10 mM HEPES, 1 mM KCl, 149 mM NaCl, 0.8 mM CaCl2, 1.7 mM MgCl2, 10 mM Glucose, 0.1% BSA. pH 7.4) containing 2 μM Fluo 4 (Molecular Probes; F-14201), 0.01% pluronic acid (Molecular Probes; P-6866) and 2.5 mM probenecid (Molecular Probes; P36400). Cells were incubated in the dark at 25° C. for 60 min. Then dye containing buffer was discarded and 100 μL basic (1 mM KCl) or alternative (30 mM KCl) assay buffer was added. The alternative assay buffer contained altered concentrations of KCl (30 mM) and NaCl (120 mM) and was used in order to promote the inactivated channel state. After that 25 μL of basic or alternative assay buffer with or without test compound were added and cells were incubated again in the dark at 25° C. for 15 min. Fluorescence intensity was measured on a FLIPR 3 instrument (Molecular Devices Corp., Sunnyvale, Calif.) with excitation at 480 nm and emission at 535 nm. After continuously reading fluorescence for 30 sec, 50 μL of basic assay buffer containing 210 mM KCl (NaCl omitted) were added for depolarization. Peak fluorescent signal intensity was determined and the amplitude of the peak signal, normalized to base line, was used to measure channel inhibition by test compounds.

T1 sequence (Q00975 whole entry): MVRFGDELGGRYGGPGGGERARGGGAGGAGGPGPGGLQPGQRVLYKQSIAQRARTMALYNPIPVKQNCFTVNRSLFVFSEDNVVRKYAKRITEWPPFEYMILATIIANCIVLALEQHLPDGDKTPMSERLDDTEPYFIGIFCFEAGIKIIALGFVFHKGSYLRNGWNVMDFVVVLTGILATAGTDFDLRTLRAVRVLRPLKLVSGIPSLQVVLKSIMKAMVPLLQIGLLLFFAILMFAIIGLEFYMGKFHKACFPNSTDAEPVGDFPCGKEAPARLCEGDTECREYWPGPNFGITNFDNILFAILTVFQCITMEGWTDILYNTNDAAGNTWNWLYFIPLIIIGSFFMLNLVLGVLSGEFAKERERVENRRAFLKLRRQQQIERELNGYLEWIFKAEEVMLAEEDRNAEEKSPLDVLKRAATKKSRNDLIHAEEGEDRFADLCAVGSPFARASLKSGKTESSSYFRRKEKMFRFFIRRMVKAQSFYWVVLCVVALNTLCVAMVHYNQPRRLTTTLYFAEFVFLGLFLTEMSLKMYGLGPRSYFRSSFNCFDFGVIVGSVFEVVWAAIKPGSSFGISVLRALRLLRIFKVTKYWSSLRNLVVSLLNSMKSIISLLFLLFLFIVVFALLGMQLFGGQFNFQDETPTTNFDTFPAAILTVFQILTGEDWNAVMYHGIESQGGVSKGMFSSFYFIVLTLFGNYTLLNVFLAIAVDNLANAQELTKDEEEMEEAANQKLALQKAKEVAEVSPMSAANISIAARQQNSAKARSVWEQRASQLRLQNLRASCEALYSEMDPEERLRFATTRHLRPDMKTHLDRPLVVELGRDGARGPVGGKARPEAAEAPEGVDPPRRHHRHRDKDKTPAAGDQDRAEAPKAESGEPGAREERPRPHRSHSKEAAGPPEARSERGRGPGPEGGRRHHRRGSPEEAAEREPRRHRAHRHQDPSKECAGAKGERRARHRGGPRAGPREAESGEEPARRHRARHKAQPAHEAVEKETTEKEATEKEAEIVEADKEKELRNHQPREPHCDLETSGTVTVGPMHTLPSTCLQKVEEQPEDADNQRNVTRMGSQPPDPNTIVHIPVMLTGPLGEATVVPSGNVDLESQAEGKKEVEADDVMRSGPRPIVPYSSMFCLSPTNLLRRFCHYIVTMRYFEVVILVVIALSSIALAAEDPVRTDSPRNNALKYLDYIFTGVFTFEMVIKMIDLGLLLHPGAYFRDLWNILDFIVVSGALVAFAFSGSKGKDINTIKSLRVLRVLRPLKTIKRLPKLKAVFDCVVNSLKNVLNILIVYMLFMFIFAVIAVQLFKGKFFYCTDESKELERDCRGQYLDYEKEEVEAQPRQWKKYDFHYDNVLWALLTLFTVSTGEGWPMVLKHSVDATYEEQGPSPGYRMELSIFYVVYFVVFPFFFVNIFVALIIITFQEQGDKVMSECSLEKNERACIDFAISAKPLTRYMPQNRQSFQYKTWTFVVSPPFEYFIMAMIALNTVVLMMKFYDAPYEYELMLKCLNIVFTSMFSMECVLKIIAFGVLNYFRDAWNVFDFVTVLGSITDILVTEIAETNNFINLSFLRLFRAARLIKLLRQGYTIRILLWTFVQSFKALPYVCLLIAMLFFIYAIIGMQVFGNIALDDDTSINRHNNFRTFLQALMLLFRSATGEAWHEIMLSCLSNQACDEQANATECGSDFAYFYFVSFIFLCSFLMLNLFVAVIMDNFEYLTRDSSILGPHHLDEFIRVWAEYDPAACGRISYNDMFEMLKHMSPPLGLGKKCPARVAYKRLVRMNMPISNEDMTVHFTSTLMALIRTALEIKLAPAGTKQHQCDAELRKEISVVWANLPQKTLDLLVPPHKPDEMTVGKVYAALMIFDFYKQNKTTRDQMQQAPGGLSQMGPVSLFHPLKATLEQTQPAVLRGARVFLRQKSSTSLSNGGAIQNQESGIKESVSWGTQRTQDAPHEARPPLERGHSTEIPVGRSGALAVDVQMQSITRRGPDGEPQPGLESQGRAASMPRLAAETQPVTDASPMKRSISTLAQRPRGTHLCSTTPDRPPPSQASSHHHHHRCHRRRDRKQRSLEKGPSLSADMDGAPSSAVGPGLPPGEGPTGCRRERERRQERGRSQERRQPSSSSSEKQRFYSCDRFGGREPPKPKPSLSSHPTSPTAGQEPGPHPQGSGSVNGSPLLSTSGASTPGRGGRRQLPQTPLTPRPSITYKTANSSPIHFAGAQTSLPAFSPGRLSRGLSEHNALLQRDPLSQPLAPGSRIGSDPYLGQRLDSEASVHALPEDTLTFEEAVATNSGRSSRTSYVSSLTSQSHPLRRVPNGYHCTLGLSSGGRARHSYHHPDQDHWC
T1 sequence (P54284 whole entry, further chain): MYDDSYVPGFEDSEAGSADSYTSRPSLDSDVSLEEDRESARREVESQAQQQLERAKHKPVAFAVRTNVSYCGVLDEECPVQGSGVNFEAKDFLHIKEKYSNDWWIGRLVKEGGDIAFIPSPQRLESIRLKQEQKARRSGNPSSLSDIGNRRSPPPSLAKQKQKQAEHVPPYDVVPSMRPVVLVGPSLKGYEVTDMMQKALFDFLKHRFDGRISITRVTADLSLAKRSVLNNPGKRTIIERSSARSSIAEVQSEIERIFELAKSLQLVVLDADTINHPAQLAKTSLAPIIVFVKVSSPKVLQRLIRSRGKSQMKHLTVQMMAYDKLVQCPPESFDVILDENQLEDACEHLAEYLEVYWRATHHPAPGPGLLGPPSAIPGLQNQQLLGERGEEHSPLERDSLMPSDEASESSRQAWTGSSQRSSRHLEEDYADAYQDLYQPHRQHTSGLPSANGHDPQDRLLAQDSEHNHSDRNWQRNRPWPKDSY
T1 sequence (P54289 25-1103, further chain): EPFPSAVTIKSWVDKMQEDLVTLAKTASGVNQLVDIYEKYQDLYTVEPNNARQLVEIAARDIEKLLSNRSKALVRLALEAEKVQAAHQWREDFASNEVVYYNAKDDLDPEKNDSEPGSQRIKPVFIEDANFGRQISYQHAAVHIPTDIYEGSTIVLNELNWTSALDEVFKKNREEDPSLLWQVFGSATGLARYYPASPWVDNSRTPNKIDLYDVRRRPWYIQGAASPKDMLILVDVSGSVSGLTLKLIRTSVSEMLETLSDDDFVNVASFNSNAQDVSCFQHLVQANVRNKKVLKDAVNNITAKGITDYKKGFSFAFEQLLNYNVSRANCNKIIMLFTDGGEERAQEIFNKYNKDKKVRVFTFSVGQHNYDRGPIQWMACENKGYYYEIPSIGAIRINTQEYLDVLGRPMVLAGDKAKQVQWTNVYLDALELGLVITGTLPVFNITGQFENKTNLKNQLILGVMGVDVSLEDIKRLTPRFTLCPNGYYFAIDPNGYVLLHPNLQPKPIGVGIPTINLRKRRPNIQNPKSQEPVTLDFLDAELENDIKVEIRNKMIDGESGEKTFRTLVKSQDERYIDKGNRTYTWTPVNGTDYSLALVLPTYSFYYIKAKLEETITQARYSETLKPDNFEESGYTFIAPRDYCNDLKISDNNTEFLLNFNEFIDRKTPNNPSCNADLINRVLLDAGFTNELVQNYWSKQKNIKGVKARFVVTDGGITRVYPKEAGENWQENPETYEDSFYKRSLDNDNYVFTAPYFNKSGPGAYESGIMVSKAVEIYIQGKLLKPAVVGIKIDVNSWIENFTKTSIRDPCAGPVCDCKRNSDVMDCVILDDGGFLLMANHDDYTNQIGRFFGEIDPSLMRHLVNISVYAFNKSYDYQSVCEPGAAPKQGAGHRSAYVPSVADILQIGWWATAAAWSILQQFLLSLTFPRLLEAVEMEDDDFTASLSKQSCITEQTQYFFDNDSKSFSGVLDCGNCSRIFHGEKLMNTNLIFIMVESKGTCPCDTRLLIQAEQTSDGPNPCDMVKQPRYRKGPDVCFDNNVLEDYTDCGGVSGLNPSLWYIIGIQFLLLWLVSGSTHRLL

Question: Which inhibition at 3 µM does the source give for `Cc1c(-c2ccc(Cl)cc2)c(C(=O)N(Cc2ccccc2)C2CCOCC2)n(C)c1C(F)(F)F` [Example 001, N-Benzyl-3-(4-chlorophenyl)-1,4-dimethyl-N-tetrahydro-pyran-4-yl-5-(trifluoromethyl)-1H-pyrrole-2-carboxylic acid amide] here?
Answer: 75 to 95%

Question: With `Cc1c(-c2ccc(Cl)cc2)c(C(=O)N(C)CC(C)(C)C)n(C)c1C(F)(F)F` [Example 002, 3-(4-Chlorophenyl)-N-(2,2-dimethyl-propyl)-N,1,4-trimethyl-5-(trifluoromethyl)-1H-pyrrole-2-carboxylic acid amide] as the molecule, how does the inhibition at 3 µM read?
Answer: 75 to 95%

Question: `Cc1c(-c2ccc(Cl)cc2)c(C(=O)N(Cc2ccccc2)CC(C)(C)C)n(C)c1C(F)(F)F` [Example 003, N-Benzyl-3-(4-chlorophenyl)-N-(2,2-dimethyl-propyl)-1,4-dimethyl-5-(trifluoromethyl)-1H-pyrrole-2-carboxylic acid amide] was tested. Which inhibition at 3 µM did it give?
Answer: 40 to 75%

Question: For `Cc1c(-c2ccc(Cl)cc2)c(C(=O)N2CCOCC2)n(C)c1C(F)(F)F` [Example 004, [3-(4-Chlorophenyl)-1,4-dimethyl-5-(trifluoromethyl)-1H-pyrrol-2-yl]-morpholin-4-yl-methanone], which inhibition at 3 µM is on record?
Answer: 75 to 95%

Question: How did the inhibition at 3 µM turn out when `CCn1c(C(=O)N(C)CC(C)(C)C)c(-c2ccc(Cl)cc2)c(C)c1C(F)(F)F` [Example 005, 3-(4-Chlorophenyl)-N-(2,2-dimethyl-propyl)-1-ethyl-N,4-dimethyl-5-(trifluoromethyl)-1H-pyrrole-2-carboxylic acid amide] was run?
Answer: 40 to 75%

Question: For `Cc1c(-c2ccc(Cl)cc2)c(C(=O)N2CCOC(C)(C)C2)n(C(C)C)c1C(F)(F)F` [Example 006, [3-(4-Chlorophenyl)-1-isopropyl-4-methyl-5-(trifluoromethyl)-1H-pyrrol-2-yl]-(2,2-dimethyl-morpholin-4-yl)-methanone], which inhibition at 3 µM is on record?
Answer: 75 to 95%

Question: How did the inhibition at 3 µM turn out when `Cc1c(-c2ccc(Cl)cc2)c(C(=O)N(C)C2(C(N)=O)CC2)n(C2CC2)c1C(F)(F)F` [Example 007, N-(1-Carbamoyl-cyclopropyl)-3-(4-chlorophenyl)-1-cyclopropyl-N,4-dimethyl-5-(trifluoromethyl)-1H-pyrrole-2-carboxylic acid amide] was run?
Answer: 40 to 75%

Question: Which inhibition at 3 µM does the source give for `Cc1c(-c2ccc(Cl)cc2)c(C(=O)N(C)C2CCS(=O)(=O)CC2)n(C2CC2)c1C(F)(F)F` [Example 008, 3-(4-Chlorophenyl)-1-cyclopropyl-N-(1,1-dioxo-thian-4-yl)-N,4-dimethyl-5-(trifluoromethyl)-1H-pyrrole-2-carboxylic acid amide] here?
Answer: 75 to 95%

Question: Which inhibition at 3 µM does the source give for `Cc1c(-c2ccc(Cl)cc2)c(C(=O)N(C)CC(C)(C)C(N)=O)n(C2CC2)c1C(F)(F)F` [Example 009, N-(2-Carbamoyl-2-methyl-propyl)-3-(4-chlorophenyl)-1-cyclopropyl-N,4-dimethyl-5-(trifluoromethyl)-1H-pyrrole-2-carboxylic acid amide] here?
Answer: 75 to 95%

Question: Which inhibition at 3 µM does the source give for `COc1ccc(CN(C)C(=O)c2c(-c3ccc(Cl)cc3)c(C)c(C(F)(F)F)n2C2CC2)cc1` [Example 010, 3-(4-Chlorophenyl)-1-cyclopropyl-N-[(4-methoxyphenyl)-methyl]-N,4-dimethyl-5-(trifluoromethyl)-1H-pyrrole-2-carboxylic acid amide] here?
Answer: 75 to 95%

Question: With `COc1ccc(CN(C)C(=O)c2c(-c3ccc(Cl)cc3)cc(C(F)(F)F)n2C2CC2)cc1` [Example 011, 3-(4-Chlorophenyl)-1-cyclopropyl-N-[(4-methoxyphenyl)-methyl]-N-methyl-5-(trifluoromethyl)-1H-pyrrole-2-carboxylic acid amide] as the molecule, how does the inhibition at 3 µM read?
Answer: 75 to 95%

Question: `Cc1c(-c2ccc(Cl)cc2)c(C(=O)N(C)C2CC2)n(C2CC2)c1C(F)(F)F` [Example 012, 3-(4-Chlorophenyl)-N,1-dicyclopropyl-N,4-dimethyl-5-(trifluoromethyl)-1H-pyrrole-2-carboxylic acid amide] was tested. Which inhibition at 3 µM did it give?
Answer: 75 to 95%

Question: How did the inhibition at 3 µM turn out when `CN(C(=O)c1c(-c2ccc(Cl)cc2)cc(C(F)(F)F)n1C1CC1)C1CC1` [Example 013, 3-(4-Chlorophenyl)-N,1-dicyclopropyl-N-methyl-5-(trifluoromethyl)-1H-pyrrole-2-carboxylic acid amide] was run?
Answer: 75 to 95%
